According to ChEMBL document CHEMBL1201862, “PubChem BioAssay data set” (2004):
The source made the active and inactive calls. Rule as the data show it, for most assays here: actives have a measured EC50 and inactives only a lower limit.

Key:
[1] = NIH-3T3 fibroblast cytotoxicity, dose response, cytotoxicity control, cell-based, fluorescence, Alamar Blue, secondary assay (AID 2327); type: functional;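 also: NIH-3T3 mouse fibroblasts cultured with fluconazole at 8 µg/mL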
[2] = fluconazole-exposed Candida albicans growth modulators – fluorescence, retest, confirmation (AID 2467); type: functional, cell-based
[3] = biological target: T1, Serine/threonine-protein phosphatase (Candida dubliniensis (strain CD36 / CBS 7987 / NCPF 3949 / NRRLY-17841) (Yeast), UniProt B9W6M3); assay: blockers of CaCl2-induced CDRE-lacZ signaling – S. cerevisiae, luminescence, secondary, dose response (AID 2388); type: functional, cell-based;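 also: yeast reporter cells carrying a calcineurin-responsive lacZ construct stimulated with calcium chloride; luminescent beta-galactosidase reporter signal in whole cells rather than isolated phosphatase activity; potency for inhibition where a drop in reporter signal means calcineurin blockade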
T1 sequence (B9W6M3 whole entry): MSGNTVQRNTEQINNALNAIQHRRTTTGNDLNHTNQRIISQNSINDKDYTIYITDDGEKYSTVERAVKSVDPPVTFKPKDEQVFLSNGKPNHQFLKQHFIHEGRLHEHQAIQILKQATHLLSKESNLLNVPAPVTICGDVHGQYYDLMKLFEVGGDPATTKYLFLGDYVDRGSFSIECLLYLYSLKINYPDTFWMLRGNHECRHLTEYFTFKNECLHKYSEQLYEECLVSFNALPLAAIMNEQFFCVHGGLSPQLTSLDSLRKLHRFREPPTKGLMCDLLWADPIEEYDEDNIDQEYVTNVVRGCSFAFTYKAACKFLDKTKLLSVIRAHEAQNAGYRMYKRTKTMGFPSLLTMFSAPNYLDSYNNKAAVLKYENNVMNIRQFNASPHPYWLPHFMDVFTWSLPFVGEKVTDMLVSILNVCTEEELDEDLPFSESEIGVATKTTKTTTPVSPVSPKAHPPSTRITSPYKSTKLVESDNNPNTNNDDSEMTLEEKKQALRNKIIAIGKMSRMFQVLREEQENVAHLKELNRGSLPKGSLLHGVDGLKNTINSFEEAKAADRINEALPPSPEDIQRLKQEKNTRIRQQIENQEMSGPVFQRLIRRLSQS

[4] = biological target: ATP-dependent molecular chaperone HSP82 (Candida albicans (strain WO-1) (Yeast), UniProt C4YTQ8); assay: steroid-induced GRE reporter decrease in yeast – S. cerevisiae, luminescence, Hsp90 inhibitor project, dose response (AID 2400); type: functional, cell-based;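 also: beta-galactosidase luminescence from glucocorticoid response element reporter as proxy for Hsp90 function; inhibitor potency where signal loss means Hsp90 inhibition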
[5] = biological target: T2, Polyadenylate-binding protein 1 (Homo sapiens, UniProt P11940); assay: MLLE binding blockers, Cy5 peptide tracer – biochemical, fluorescence polarization, Cy5-PAM2 peptide, secondary, miRNA deadenylation inhibitor project, dose response (AID 602260); type: functional; details: read-out: IC50_Mean
[6] = biological target: T2, Polyadenylate-binding protein 1; assay: MLLE domain peptide-binding blockers, IC50 – biochemical, fluorescence polarization, FITC-PAM2 peptide, dose response (AID 602259); type: functional; details: read-out: IC50_Mean
[7] = biological target: T3, Corticotropin-releasing factor receptor 2/Corticotropin-releasing factor-binding protein (Homo sapiens, UniProt P24387+Q13324); assay: Dose Response confirmation of uHTS hits for small molecule antagonists of the CRF-binding protein and CRF-R2 receptor complex.; type: functional; details: read-out: IC50_Mean
T3 sequence (Q13324 whole entry): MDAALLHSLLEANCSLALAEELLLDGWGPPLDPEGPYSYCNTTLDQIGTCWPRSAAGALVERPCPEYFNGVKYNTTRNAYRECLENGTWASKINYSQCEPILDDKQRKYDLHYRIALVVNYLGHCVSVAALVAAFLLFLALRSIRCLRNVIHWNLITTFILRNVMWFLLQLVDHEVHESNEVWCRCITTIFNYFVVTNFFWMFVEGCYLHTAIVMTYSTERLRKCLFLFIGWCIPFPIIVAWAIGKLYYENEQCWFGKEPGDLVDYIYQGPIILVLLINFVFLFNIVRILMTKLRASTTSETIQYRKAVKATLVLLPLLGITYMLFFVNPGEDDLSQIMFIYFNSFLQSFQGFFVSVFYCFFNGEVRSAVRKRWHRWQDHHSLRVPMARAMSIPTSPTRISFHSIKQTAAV
T3 sequence (P24387 whole entry): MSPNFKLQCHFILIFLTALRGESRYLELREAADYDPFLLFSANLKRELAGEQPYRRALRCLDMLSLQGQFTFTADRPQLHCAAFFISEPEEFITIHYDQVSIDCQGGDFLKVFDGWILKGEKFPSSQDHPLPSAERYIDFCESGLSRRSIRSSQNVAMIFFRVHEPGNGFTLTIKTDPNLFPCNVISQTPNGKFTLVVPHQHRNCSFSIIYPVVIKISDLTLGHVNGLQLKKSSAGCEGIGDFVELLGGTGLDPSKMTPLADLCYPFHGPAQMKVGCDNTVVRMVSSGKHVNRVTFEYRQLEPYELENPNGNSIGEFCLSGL

[8] = biological target: T3, Corticotropin-releasing factor receptor 2/Corticotropin-releasing factor-binding protein; assay: activators of CRF receptor 2 with binding protein – uHTS hits, confirmation (AID 602473); type: functional; details: read-out: EC50_Mean
[9] = blockers of CRF-binding protein–CRF-R2 complex – cell-based, uHTS hits, 384-well, dose response (AID 651639); type: functional, Homo sapiens; details: read-out: IC50_Mean
[10] = biological target: T4, Calpain-2 catalytic subunit (Sus scrofa, UniProt P43367); assay: m-calpain protease blockers, concentration series – biochemical, fluorogenic peptide substrate, dose response (AID 1420); type: functional
T4 sequence (P43367 whole entry): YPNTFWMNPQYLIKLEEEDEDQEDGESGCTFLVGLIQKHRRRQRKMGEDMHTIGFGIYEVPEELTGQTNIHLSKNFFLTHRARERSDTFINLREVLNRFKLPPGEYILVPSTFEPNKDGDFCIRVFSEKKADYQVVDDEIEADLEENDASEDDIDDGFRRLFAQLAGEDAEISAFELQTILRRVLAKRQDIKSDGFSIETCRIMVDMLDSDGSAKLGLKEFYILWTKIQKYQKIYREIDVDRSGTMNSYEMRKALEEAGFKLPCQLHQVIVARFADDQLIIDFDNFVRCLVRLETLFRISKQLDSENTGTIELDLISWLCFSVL

[11] = system: Streptococcus sp. 'group A'; assay: Streptococcus pyogenes SK(-)GAS viability under kanamycin – luminescence, BacTiterGlo, confirmation, counter-screen for streptokinase expression inhibitor project, dose response (AID 1900); type: functional, organism-based
Streptokinase A = biological target: T5, Streptokinase A (Streptococcus pyogenes serotype M1, UniProt P10520); assay: viability-normalized secreted streptokinase activity reduction – plasminogen activation absorbance, OD405, dose response (AID 1914); type: functional, Streptococcus pyogenes M1 GAS;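 also: secreted streptokinase activity via plasminogen activation per viability signal from cell pellet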
T5 sequence (P10520 whole entry): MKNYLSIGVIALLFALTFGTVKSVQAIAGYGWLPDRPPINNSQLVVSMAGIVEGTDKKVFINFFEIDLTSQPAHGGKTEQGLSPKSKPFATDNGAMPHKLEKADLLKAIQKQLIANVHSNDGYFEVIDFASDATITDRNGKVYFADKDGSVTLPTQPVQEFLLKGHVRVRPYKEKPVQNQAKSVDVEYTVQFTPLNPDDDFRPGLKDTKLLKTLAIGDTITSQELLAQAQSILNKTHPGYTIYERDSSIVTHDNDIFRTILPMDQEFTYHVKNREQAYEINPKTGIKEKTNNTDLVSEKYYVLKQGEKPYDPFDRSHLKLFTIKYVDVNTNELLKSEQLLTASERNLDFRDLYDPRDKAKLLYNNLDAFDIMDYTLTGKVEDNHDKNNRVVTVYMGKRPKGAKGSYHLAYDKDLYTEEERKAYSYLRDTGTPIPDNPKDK

[12] = Trypanosoma cruzi growth suppression in host cells – NIH3T3 host cells, beta-gal luminescence, confirmation (AID 2044); type: functional, cell-based;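 also: intracellular parasites grown in NIH/3T3 mouse fibroblasts as host cells; luminescent beta-galactosidase reporter signal from transgenic T. cruzi replicating inside host cells; inhibitors lower the luminescence signal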
[13] = NIH3T3 cell viability loss – ATP luminescence, mouse fibroblasts, counter-screen, dose response (AID 2010); type: functional, cell-based;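 also: cells exposed to compound for about 90 hours before reading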
Streptococcus = assay: GAS UMAA2166 growth inhibition – luminescence, BacTiterGlo, counter-screen for streptokinase expression inhibitor project, dose response (AID 1915); type: functional, organism-based;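 also: potency for reduction of bacterial viability or growth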
INS1 = assay: INS-1E survival protection against cytokine death – cell-based, luminescence, retest, dose response (AID 449756); type: functional; details: Rattus norvegicus;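 also: cell death triggered by IL-1 beta plus TNF-alpha plus IFN-gamma mixture; protective hits raise ATP signal compared with cytokine alone wells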
Cytochrome P450 2D6 = Cytochrome P450 2D6 (Homo sapiens, UniProt P10635);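 also: CYP2D6 member of a cytochrome P450 panel assay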
Leucine aminopeptidase = biological target: T6, Leucine aminopeptidase (Plasmodium falciparum 3D7, UniProt Q8IL11); assay: P. falciparum M17LAP inhibitors, primary screen, biochemical, fluorogenic H-Leu-NHMec substrate, 1536-well (AID 1619); type: functional
T6 sequence (Q8IL11 whole entry): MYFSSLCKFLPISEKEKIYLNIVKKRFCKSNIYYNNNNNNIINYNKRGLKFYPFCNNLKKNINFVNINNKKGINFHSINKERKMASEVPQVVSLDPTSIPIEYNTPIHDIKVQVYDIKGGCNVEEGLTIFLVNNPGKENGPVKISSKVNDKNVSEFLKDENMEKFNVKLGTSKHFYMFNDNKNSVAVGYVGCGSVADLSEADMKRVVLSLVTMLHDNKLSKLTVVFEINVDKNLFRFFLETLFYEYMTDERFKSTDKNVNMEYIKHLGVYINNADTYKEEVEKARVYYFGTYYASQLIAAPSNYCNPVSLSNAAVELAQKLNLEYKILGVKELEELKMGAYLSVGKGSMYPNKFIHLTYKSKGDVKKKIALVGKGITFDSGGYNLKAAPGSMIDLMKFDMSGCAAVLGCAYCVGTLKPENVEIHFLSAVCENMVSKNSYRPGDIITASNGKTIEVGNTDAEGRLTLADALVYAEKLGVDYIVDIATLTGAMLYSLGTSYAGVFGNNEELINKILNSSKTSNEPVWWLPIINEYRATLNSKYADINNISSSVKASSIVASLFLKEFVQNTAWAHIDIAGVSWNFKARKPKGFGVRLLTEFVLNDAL

Cytochrome P450 1A2 = biological target: T7, Cytochrome P450 1A2 (Homo sapiens, UniProt P05177);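 also: PubChem cytochrome P450 panel assay, CYP1A2 panel member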
T7 sequence (P05177 whole entry): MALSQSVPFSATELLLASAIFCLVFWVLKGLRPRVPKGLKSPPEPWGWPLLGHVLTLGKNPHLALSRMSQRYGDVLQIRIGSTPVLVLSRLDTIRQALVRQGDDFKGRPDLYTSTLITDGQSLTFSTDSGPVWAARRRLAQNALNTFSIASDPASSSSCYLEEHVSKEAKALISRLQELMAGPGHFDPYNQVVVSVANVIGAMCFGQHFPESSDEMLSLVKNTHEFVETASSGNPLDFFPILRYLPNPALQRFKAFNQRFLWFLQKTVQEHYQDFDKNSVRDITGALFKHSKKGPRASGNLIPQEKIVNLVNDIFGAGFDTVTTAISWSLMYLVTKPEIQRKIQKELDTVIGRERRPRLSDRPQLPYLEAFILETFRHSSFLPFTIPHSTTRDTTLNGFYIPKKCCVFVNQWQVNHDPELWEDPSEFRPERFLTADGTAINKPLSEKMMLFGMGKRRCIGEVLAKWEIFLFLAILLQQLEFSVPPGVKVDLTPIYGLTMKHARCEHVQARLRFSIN

BJ [14] = assay: BJ-TERT fibroblast viability loss – cell-based, RAS-independent, luminescence, dose response (AID 1933); type: functional; details: Homo sapiens
BJ [15] = assay: cells; type: functional, cell-based; details: Homo sapiens
BJ [16] = assay: BJ-TERT-LT-ST fibroblast viability loss – cell-based, RAS-independent, luminescence, dose response (AID 1935); type: functional; details: Homo sapiens;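 also: BJ fibroblasts immortalized with TERT plus LT and ST oncogenes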
[17] = DRD fibroblast viability loss – cell-based, non-viral oncogenic, luminescence, dose response (AID 1934); type: functional; details: Homo sapiens

ATP-dependent molecular chaperone HSP82, sequence (C4YTQ8 whole entry): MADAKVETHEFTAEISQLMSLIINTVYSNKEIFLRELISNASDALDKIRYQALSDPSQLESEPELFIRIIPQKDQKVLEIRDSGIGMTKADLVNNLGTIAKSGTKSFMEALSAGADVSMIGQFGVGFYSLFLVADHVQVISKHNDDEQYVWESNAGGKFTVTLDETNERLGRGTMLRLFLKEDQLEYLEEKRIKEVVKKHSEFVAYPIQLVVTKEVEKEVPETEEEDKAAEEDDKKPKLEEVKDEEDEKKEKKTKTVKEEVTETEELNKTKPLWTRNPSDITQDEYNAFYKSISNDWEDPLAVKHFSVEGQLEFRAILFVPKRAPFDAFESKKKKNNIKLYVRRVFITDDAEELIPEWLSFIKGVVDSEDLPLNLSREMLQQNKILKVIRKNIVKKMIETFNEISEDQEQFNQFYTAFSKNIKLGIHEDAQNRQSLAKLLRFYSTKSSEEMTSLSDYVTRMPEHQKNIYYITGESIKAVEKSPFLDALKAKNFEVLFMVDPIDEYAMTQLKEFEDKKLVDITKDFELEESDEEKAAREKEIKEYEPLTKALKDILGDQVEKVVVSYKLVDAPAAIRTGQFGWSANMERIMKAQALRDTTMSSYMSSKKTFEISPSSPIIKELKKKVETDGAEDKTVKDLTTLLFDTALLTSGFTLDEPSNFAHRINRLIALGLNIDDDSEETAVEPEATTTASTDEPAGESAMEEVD
T2 sequence (P11940 whole entry, the tested form may be a part): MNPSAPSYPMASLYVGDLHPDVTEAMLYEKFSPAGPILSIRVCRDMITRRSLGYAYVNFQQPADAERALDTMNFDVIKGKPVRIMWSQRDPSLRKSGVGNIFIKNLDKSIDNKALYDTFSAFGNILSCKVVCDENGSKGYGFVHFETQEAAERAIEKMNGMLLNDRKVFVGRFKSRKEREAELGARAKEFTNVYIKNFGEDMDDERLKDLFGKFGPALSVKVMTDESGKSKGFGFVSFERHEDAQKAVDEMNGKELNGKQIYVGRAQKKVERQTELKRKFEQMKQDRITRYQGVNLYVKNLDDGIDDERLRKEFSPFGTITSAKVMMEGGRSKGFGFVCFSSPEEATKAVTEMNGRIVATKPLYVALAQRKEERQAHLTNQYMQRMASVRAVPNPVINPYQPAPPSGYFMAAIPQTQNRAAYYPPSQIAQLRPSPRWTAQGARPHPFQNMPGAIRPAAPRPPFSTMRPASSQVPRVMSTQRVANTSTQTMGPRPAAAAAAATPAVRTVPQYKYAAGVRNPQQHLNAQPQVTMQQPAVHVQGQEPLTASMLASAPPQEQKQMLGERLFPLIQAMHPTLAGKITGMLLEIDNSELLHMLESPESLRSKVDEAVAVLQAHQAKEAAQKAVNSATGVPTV
Cytochrome P450 2D6, sequence (P10635 whole entry): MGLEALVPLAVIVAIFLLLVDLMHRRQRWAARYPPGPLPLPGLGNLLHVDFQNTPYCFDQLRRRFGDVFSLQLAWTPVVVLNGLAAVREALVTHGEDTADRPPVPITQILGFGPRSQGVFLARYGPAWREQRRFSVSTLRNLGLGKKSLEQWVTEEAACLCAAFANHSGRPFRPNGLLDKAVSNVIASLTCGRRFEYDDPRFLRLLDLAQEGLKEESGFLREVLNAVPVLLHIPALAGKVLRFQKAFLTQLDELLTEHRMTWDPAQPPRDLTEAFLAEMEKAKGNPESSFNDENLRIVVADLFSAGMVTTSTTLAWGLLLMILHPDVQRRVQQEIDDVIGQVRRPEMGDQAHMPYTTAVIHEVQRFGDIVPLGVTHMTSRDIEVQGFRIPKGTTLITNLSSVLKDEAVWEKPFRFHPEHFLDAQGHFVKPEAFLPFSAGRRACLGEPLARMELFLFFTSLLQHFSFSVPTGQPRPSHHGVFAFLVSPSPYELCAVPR

Structure (SMILES) | EC50 [1] | EC50 [2] | EC50 [3] | EC50 [4] | IC50 [7] | EC50 [8] | IC50 [9] | other results
CCCCc1c(O)n(-c2ccccc2OC)c(SCC(=O)Nc2cccc3ccccc23)nc1=O | > 160 µM (inconclusive) | 2.03 µM (active) | > 180 µM (inactive) | > 160 µM (inactive) |  |  |  | IC50 [5]: > 66 µM (inactive); IC50 [6]: > 66 µM (inactive)
CCOC(=O)Nc1ccc(Oc2ccccc2)cc1 |  |  |  |  | 15.2 µM (active) | > 53 µM (inactive) | > 20 µM (inactive) | 
CC(=O)c1ccc(N2CCN(C(=O)c3cccc(Oc4ccccc4)c3)CC2)cc1 |  |  |  |  | 2.16 µM (active) | > 53 µM (inactive) | 6.67 µM (active) | IC50 [10]: 12.3 µM (not active)
CCC(=O)NC(c1ccc(C)cc1)c1cc([N+](=O)[O-])c2cccnc2c1O (configuration not stated) | 21.8 µM (active) | 0.212 µM (active) | > 180 µM (inactive) | > 150 µM (inactive) |  |  |  | EC50 [11]: 1.17 µM (active); EC50 (Streptokinase A): 56.5 µM (active); EC50 [12]: 1.34 µM (active); EC50 [13]: 6.02 µM (active); EC50 (Streptococcus): 12.7 µM (active); AC50 (INS1): 5.53 µM (active)
COC(=O)C(NC(=O)c1ccc(F)cc1)(Nc1ncc(S(=O)(=O)c2ccc([N+](=O)[O-])cc2)s1)C(F)(F)F (configuration not stated) |  |  |  |  | 16.3 µM (active) | > 53 µM (inactive) | 14.5 µM (active) | AC50 (Cytochrome P450 2D6): 31.6 µM (inconclusive)
CCCCN(c1ccc(C(=O)OC)cc1)S(=O)(=O)c1ccccc1 |  |  |  |  | < 0.368 µM (active) | > 53 µM (inactive) | > 20 µM (inactive) | 
C=CCn1c(N)nc2ccccc21 | > 160 µM (inactive) | 1.55 µM (active) | > 180 µM (inactive) | > 160 µM (inactive) |  |  |  | 
O=C(CCc1ccccc1)NNC(=S)NC(=O)c1ccccc1 | > 150 µM (inactive) | 1.01 µM (active) | 19.2 µM (active) | 16.4 µM (active) |  |  |  | IC50 (Leucine aminopeptidase): 41.3 µM (active); EC50 [11]: 1.27 µM (active); EC50 (Streptococcus): 5.07 µM (active); AC50 (Cytochrome P450 1A2): 14.1 µM (inconclusive)
O=C(Nc1cc(S(=O)(=O)N2CCCCC2)ccc1N1CCCCC1)C1CC1 |  |  |  |  | < 0.368 µM (active) | > 53 µM (inactive) | > 20 µM (inactive) | 
COc1ccc(C(=O)/C(C#N)=N/Nc2ccccc2[N+](=O)[O-])cc1 |  |  |  |  | 4.66 µM (active) | > 53 µM (inactive) | 11 µM (active) | EC50 (BJ [14]): 10.7 µM (active); EC50 (BJ [15]): 19.4 µM (inconclusive); EC50 (BJ [16]): 21.5 µM (inconclusive); EC50 [17]: 2.84 µM (active)
